Results: patent publication US11369607B2, “Compositions, systems, and methods for generating inner ear hair cells for treatment of hearing loss” (Massachusetts Institute of Technology, priority 2014, dated 2022)
Entries after “also recorded” stand apart in the source; their conditions may differ.

Tests used:
[1] = test system: Lgr5+ supporting cells isolated from the cochlea; assay: Expansion of Lgr5-GFP inner ear progenitor cells in Matrigel based 3D culture; assay type: cell-based, mouse; settings: for GFP+ cell number / GFP+ percentage: named factor removed from EFICVP6, 10 days; for Lgr5-GFP expression, effect of addition / cell proliferation, effect of addition: neonatal Lgr5 inner ear progenitor cells
Procedure: Cell culture: Heterozygous Lgr5-EGFP-IRES-CreERT2 mice were obtained from Jackson Labs, and neonatal P2-P5 mice were used for cell isolation. Organ of Corti was isolated from Lgr5-GFP mice and further dissociated into single cells using trypsin. Cells were then cultured as previously described (Yin et al, 2014). Briefly, cells were entrapped in Matrigel and plated at the center of wells in a 24-well plate. Following polymerization of Matrigel, 500 μl of culture media (Advanced DMEM/F12 with N2 and B27) was added, containing growth factors including EGF (50 ng/ml) (epidermal growth factor), bFGF (20 ng/ml) (fibroblast growth factor), and IGF1 (50 ng/ml) (insulin-like growth factor 1), and small molecules including CHIR99021 (5 μM), valproic acid (1 mM), 2-phospho-L-ascorbic acid (280 μM), and 616452 (2 μM). Y-27632 (10 μM) was added for the first 2 days. In some experiments, bFGF was used at 50 ng/ml.
For single cell isolation, the organs of Corti were then treated with Cell Recovery Solution (Corning) for 1 h to separate cochlear epithelium from the underlying mesenchyme. Epithelia were then collected and treated with Trypsin (Life Technologies) for 15-20 minutes at 37° C. Single cells obtained by mechanical trituration were filtered by cell strainer (40 μm) and washed with cell culture media. For FACS sorting of Lgr5-high and Lgr5-Low cells, FACS ARIA (BD) was used and Lgr5-GFP was used as indicator of Lgr5 level. Sorted single cells were cultured in Matrigel in inner ear cell culture media with supplement growth factors and small molecules. Y-27632 was added in the first 2 days.
FACS analysis: Cell culture media was removed and Trypsin was added. After incubation at 37° C. for 10-20 min, colonies were dissociated into single cells. Live-cell number were counted using a hemocytometer and trypan blue staining. The cells were then stained with propidium iodide (PI) and analyzed with flow cytometry. The number of GFP-positive cells was calculated by multiplying the total number of cells by the percentage of GFP-positive cells.

[2] = test system: Atoh1-GFP inner ear epithelial cells; assay: Spontaneous hair cell differentiation of cultured Atoh1-nGFP inner ear epithelial cells; assay type: cell-based, mouse
[3] = test system: expanded Lgr5-positive cells; assay: Differentiation of expanded Lgr5-positive cells to hair cells; assay type: cell-based, mouse; settings: in differentiation media
Procedure: Differentiation protocol: For differentiation of expanded Lgr5-positive cells, following 10 days of culture in the cell expansion condition (EFICVP6), the cell colonies were transferred to fresh Matrigel and further cultured in differentiation media. Differentiation media contains Notch pathway inhibitor (e.g. DAPT, D, 5 μM, or LY411575, LY, 5 μM), with or without Gsk3β inhibitor (e.g. CHIR99021). Media were changed every other day. Following another 6-10 days of incubation with differentiation media, the colonies were harvested for qPCR analysis or fixed with 4% PFA and immunostained with hair cell markers Myo7a and Prestin.
RNA extraction and quantitative real-time PCR (qPCR): RNA was isolated from cultured cells (RNeasy Mini Kit; Qiagen) according to the manufacturer's protocol. Quantitative real-time PCR was performed with QuantiTect Probe PCR kit (Qiagen) using commercially available primers and TaqMan probes (Myo7a and Hprt Life Technologies).
Immunocytochemistry staining: Colonies were fixed at room temperature in 4% paraformaldehyde/PBS for 15-20 min and then washed twice with PBS containing 0.1% BSA. Cells were then permeabilized with 0.25% Triton X-100 in PBS in 4° C. for 30 minutes. Following 2 washes with PBS containing 0.1% BSA, the cells were incubated with blocking solution (Power Block, Biogenex) for 1 h. Diluted primary antibodies (in Power Block solution) was applied for 4 h at room temperature or overnight at 4° C. Primary antibodies used were Myosin VIIA (1:500, Rabbit polyclonal from Proteus Biosciences) and Prestin (1:400, Goat polyclonal from Santa Cruz). After 3 washes for 5 minutes each, secondary antibodies (Alexafluor 594 and 647-conjugated; Invitrogen) were added at 1:500 dilution and incubated at room temperature for 30 minutes. Nuclei were visualized with 4,6-diamidino-2-phenylindole (DAPI, Vector Laboratories). Staining was visualized with inverted fluorescence microscope (EVOS; Advanced Microscopy Group).

[4] = In vitro drug release from poloxamer-407 hydrogel (dialysis bag method); assay type: physicochemical; settings: for initial burst release / cumulative release: pH 7.4, 37° C.; for cumulative release: in 48 h
Procedure: To understand the release kinetics of encapsulated drugs from poloxamer-407 hydrogels, in vitro release studies were performed using dialysis bag method at pH 7.4 and 37° C. temperature conditions. Briefly, sealed dialysis bag (3.5-5 kDa cutoff) containing 30 μL gel suspended in 1 ml PBS was placed in 10 mL of the release medium (PBS). The release medium was stirred at 100 rpm to prevent the formation of a stagnant layer at the membrane and outer solution interface. 1 mL aliquots were taken from the medium at predetermined intervals for the analysis of drugs using HPLC, and replaced with an equal volume of fresh medium.

CBA/CaJ mice = assay: Hearing recovery in noise-deafened mice (auditory brainstem responses); assay type: in vivo, mouse; settings: 5, 10, 20, 28.3 and 40 kHz, p<0.05
Procedure: A 17% (w/w) stock solution of poloxamer 407 gel (Sigma-Aldrich) was prepared by slowly adding it to cold 1× phosphate-buffered saline at pH 7.4. This solution is liquid when refrigerated or at room temperature but solidifies at body temperature. The gel was tinted blue with Evans blue dye (50 ppm) for visualization during administration.
A formulation was prepared as described in Example 4 with 527 mM VPA and 2.975 mM CHIR in 17% Poloxamer 407 with 5% DMSO (“VPA/CHIR”). For comparison, a Notch inhibitor, LY411575, was prepared at 4 mM in 17% Poloxamer 407 with 5% DMSO (“LY411575”). Additionally, a vehicle-only control of 17% Poloxamer 407 with 5% DMSO was prepared (“Control”).
CBA/CaJ mice were deafened in a noise chamber by exposure to an 8-16 kHz octave band noise band for 2 hours at 120 dB SPL. 24 hours after noise exposure, their hearing was assessed by measuring auditory brainstem responses (ABRs). The minimum sound pressure level (SPL) required for visual detection of ABR Wave I was determined at 5, 10, 20, 28.3, and 40 kHz. Following ABR measurements, a trans-tympanic injection of a Poloxamer gel drug mixture (described above as “VPA/CHIR”, “LY411575”, or “Control”) was delivered to fill the middle ear cavity. After 30 days, ABR was assessed and the improvement in hearing threshold from 24 hrs to 30 days after noise exposure was determined.

[5] = test system: Lgr5 inner ear cells from adult mice; assay: Expansion of Lgr5-GFP inner ear cells from adult mice; assay type: cell-based; settings: adult mouse
Procedure: FIGS. 13A-C depict In vitro culture of Lgr5-GFP inner ear progenitor cells from adult mouse. FIG. 13A: Isolated cochlear from 9-week old mice was cultured in the presence of EFICVP6 for 9 days. Showing out-growth of Lgr5-GFP cells. FIG. 13B: The same culture at day 13. Showing expansion of Lgr5-GFP cells. FIG. 13C: Passage 2 of the same culture at day 5 after passage (Day 19). All scale bars: 100 μm. Specifically, cochlear was isolated from 9-week old adult mice, directly mixed with Matrigel and plated at the center of well of a 24-well plate. Cell culture medium in the presence of EGF, bFGF, IGF-1, CHIR99021, VPA, L-Ascorbic acid 2-phosphate (pVc) and a TGF-β RI Kinase Inhibitor II (616452) was added following gelation of Matrigel. The tissue was cultured for 2 weeks until Lgr5-GFP cells expanded and form out-growth. After 2 weeks (Day 14) the tissue was then dissociated using trypsin, re-plated and further cultured.
For adult tissue, the stria vascularis was removed but the epithelium was not removed from the underlying mesenchyme due to the limited amount of intact cochlea that could be extracted. For adult cells, additional small molecule TTNPB (2 μM, Tocris) was added and the complete media contain EGF, bFGF, IGF-1, CHIR99021, VPA, pVc, 616452 and TTNPB.

[6] = Thermal gelation of poloxamer-407 formulations (visual tube inversion method); assay type: physicochemical
Procedure: Poloxamer-407 hydrogels were prepared using the “cold-method”. Briefly, a weighed amount of poloxamer-407 was added to 40 ml cold ultra pure water or cold PBS (pH 7.4), and stirred overnight at 4° C. on a magnetic stir plate to effect complete solubilization. Multiple concentrations of poloxamer-407 solution ranging from 18% (w/w) to 25% (w/w) were prepared. Hydrophilic drugs, including valproic acid (VPA) and phosphorylated ascorbic acid (PAC) were added to the 5 ml poloxamer-407 solution and dissolved at 4° C. on a magnetic stir plate. Weight ratio of poloxamer-407 to the drug was varied to understand the effects of drugs on the gelation properties of poloxamer-407, and to determine the optimal formulation that gels at 37° C. with maximum possible loading of the hydrophilic drugs. The gelation temperatures of the formulations were determined by the “visual tube inversion method”. Briefly, glass vials containing poloxamer 407 solutions, with or without the hydrophilic drugs were placed in a water bath.
To encapsulate hydrophobic drugs, including CHIR 99021 (CHIR), Repsox and TTNPB, appropriate volumes from their stock solutions in DMSO were added into the poloxamer-407 solutions containing the hydrophilic drugs, and mixed by pipetting at 4° C. […] Gelation temperature of the formulation was determined by the “visual tube inversion method”, as described before.

[7] = factor removed from the culture medium
[8] = named factor removed, versus EFICVP6

initial burst release ([4]; in 2 h) | cumulative release [4] | concentration that inhibited gelation of poloxamer-407 solution [6] | initial burst release ([4]; in 0.5 h) | Compound | importance of the factor for Lgr5-GFP expression [1, 7] | importance of the factor for cell proliferation [1, 7] | GFP+ cell number [1] | GFP+ percentage [1] | decrease of GFP+ cell number [1, 8] | decrease of GFP+ percentage [1, 8] | decrease of total cell number [1, 8] | differentiation to Atoh-1+ cells [2] | effect on differentiation of hair cells [3] | hearing recovery (CBA/CaJ mice) | Lgr5-GFP expression, effect of addition [1] | cell proliferation, effect of addition [1] | GFP+ colony formation [5] | proliferation of adult Lgr5 cells [5] | spontaneous differentiation of hair cells ([2]; Atoh1-nGFP mouse line, 7 days) | release kinetics [4]
10% | 33% | – | – | Cc1c[nH]c(-c2cnc(NCCNc3ccc(C#N)cn3)nc2-c2ccc(Cl)cc2Cl)n1 [CHIR, 6-[[2-[[4-(2,4-dichlorophenyl)-5-(5-methyl-1H-imidazol-2-yl)-2-pyrimidinyl]amino]ethyl]amino]-3-pyridinecarbonitrile] | critical for cell proliferation and GFP expression; also recorded: greatly impacted GFP expression; also recorded: greatest effect on Lgr5 expression; also recorded: important to promote cell proliferation and GFP expression | critical for cell proliferation and GFP expression; also recorded: greatly impacted cell proliferation; also recorded: greatest effect on proliferation; also recorded: important to promote cell proliferation and GFP expression | ~65 cells | 1.3% | ~4000 fold | ~50 fold | ~100 fold | can promote differentiation to Atoh-1+ cells | increases the differentiation efficiency of a Notch inhibitor | – | – | – | – | – | – | –
– | – | – | – | C[C@H](NC(=O)[C@@H](O)c1cc(F)cc(F)c1)C(=O)N[C@@H]1C(=O)N(C)c2ccccc2-c2ccccc21 [LY411575, N-2((2S)-2-(3,5-difluorophenyl)-2-hydroxyethanoyl)-N 1-((7S)-5-methyl-6-oxo-6,7-dihydro-5H-dibenzo[b,d]azepin-7-yI)-1-alaninamide] | – | – | – | – | – | – | – | – | – | significant recovery at 10 kHz, 28.3 KHz, and 40 kHz | – | – | – | – | – | –
– | – | – | – | C/C(=C\c1ccc(C(=O)O)cc1)c1ccc2c(c1)C(C)(C)CCC2(C)C [TTNPB] | – | – | – | – | – | – | – | – | – | – | didn't increase GFP expression | increased cell proliferation; also recorded: slightly increased cell proliferation | formation of GFP^+ colonies | increase cell proliferation; also recorded: significantly promoted the proliferation of cultured cells; also recorded: promote the proliferation of adult Lgr5 inner ear progenitor cells | – | –
– | 98% | greater than 88 mg/ml | 17% | CCCC(CCC)C(=O)O [VPA, 2-propylpentanoic acid] | important for GFP expression; also recorded: greater impact on GFP maintenance; also recorded: greatly reduced Lgr5 expression; also recorded: important to promote GFP maintenance | – | – | 28% | 2 fold | 2 fold | – | – | inhibit the differentiation of hair cells | – | – | – | – | – | inhibited the differentiation of inner ear progenitor cells towards Atoh1 positive hair cells; also recorded: suppressed spontaneous differentiation of hair cells; also recorded: functions through suppressing differentiation | significantly faster as compared to that of CHIR
– | – | > 14000 µg/mL | – | O=C1O[C@H]([C@@H](O)CO)C(O)=C1OP(=O)(O)O [pVc, 2-phospho-L-ascorbic acid] | greater impact on GFP maintenance; also recorded: greatly reduced Lgr5 expression; also recorded: important to promote GFP maintenance | – | 1.1×10^5 cells | 25% | 2 fold | 2 fold | – | – | inhibit the differentiation of hair cells | – | promoted GFP expression from Lgr5-GFP inner ear progenitor cells; also recorded: promotes GFP expression | increases cell proliferation of Lgr5 inner ear progenitor cells | – | – | – | –
